Source: patent US10125138B2, “Triazolotriazinone derivatives having activity a s herbicides” (Syngenta Participations AG, priority 2015, dated 2018)

What was measured:
Type in all cases: in vivo
[1] = test system: Amaranthus retoflexus (AMARE); assay: Post-emergence glasshouse herbicide test, Amaranthus retoflexus; details: evaluated after 13 days, five point scale
Method: (§1) Seeds of a variety of test species are sown in standard soil in pots (Lolium perenne (LOLPE), Solanum nigrum (SOLNI), Amaranthus retoflexus (AMARE), Setaria faberi (SETFA), Echinochloa crus-galli (ECHCG), Ipomoea hederacea (IPOHE)). After cultivation for one day (pre-emergence) or after 8 days cultivation (post-emergence) under controlled conditions in a glasshouse (at 24/16° C., day/night; 14 hours light; 65% humidity), the plants are sprayed with an aqueous spray solution derived from the formulation of the technical active ingredient in acetone/water (50:50) solution containing 0.5% Tween 20 (polyoxyethelyene sorbitan monolaurate, CAS RN 9005-64-5). […] The test plants are then grown in a glasshouse under controlled conditions in a glasshouse (at 24/16° C., day/night; 14 hours light; 65% humidity) and watered twice daily. After 13 days for pre and post-emergence, the test is evaluated for the percentage damage caused to the plant. The biological activities are shown in the following table on a five point scale (5=80-100%; 4=60-79%; 3=40-59%; 2=20-39%; 1=0-19%).

Setaria faberi (SETFA) [2] = assay: Post-emergence glasshouse herbicide test, Setaria faberi; details: evaluated after 13 days, five point scale
Method: as §1

[3] = test system: Amaranthus retoflexus (AMARE); assay: Pre-emergence glasshouse herbicide test, Amaranthus retoflexus; details: evaluated after 13 days, five point scale
Method: as §1

Setaria faberi (SETFA) [4] = assay: Pre-emergence glasshouse herbicide test, Setaria faberi; details: evaluated after 13 days, five point scale
Method: as §1

[5] = test system: Ipomoea hederacea (IPOHE); assay: Pre-emergence glasshouse herbicide test, Ipomoea hederacea; details: evaluated after 13 days, five point scale
Method: as §1

[6] = test system: Ipomoea hederacea (IPOHE); assay: Post-emergence glasshouse herbicide test, Ipomoea hederacea; details: evaluated after 13 days, five point scale
Method: as §1

[7] = test system: Echinochloa crus-galli (ECHCG); assay: Pre-emergence glasshouse herbicide test, Echinochloa crus-galli; details: evaluated after 13 days, five point scale
Method: as §1

[8] = test system: Echinochloa crus-galli (ECHCG); assay: Post-emergence glasshouse herbicide test, Echinochloa crus-galli; details: evaluated after 13 days, five point scale
Method: as §1

Lolium perenne (LOLPE) [9] = assay: Pre-emergence glasshouse herbicide test, Lolium perenne; details: applied at 250 g/ha, evaluated after 13 days, five point scale
Method: as §1

Lolium perenne (LOLPE) [10] = assay: Post-emergence glasshouse herbicide test, Lolium perenne; details: applied at 250 g/ha, evaluated after 13 days, five point scale
Method: as §1

| SMILES | percentage damage caused to the plant, POST Application AMARE ([1]; 1000 g/h) | percentage damage caused to the plant, POST Application SETFA (Setaria faberi (SETFA) [2]; 1000 g/h) | percentage damage caused to the plant, PRE Application AMARE ([3]; 1000 g/h) | percentage damage caused to the plant, PRE Application SETFA (Setaria faberi (SETFA) [4]; 1000 g/h) | percentage damage caused to the plant, PRE Application IPOHE ([5]; 1000 g/h) | percentage damage caused to the plant, POST Application IPOHE ([6]; 1000 g/h) | percentage damage caused to the plant, PRE Application ECHCG ([7]; 1000 g/h) | percentage damage caused to the plant, POST Application ECHCG ([8]; 1000 g/h) | percentage damage caused to the plant, POST Application AMARE ([1]; applied at 250 g/ha) | percentage damage caused to the plant, PRE Application LOLPE (Lolium perenne (LOLPE) [9]) | percentage damage caused to the plant, POST Application LOLPE (Lolium perenne (LOLPE) [10]) | percentage damage caused to the plant, POST Application SETFA (Setaria faberi (SETFA) [2]; applied at 250 g/ha) | percentage damage caused to the plant, PRE Application AMARE ([3]; applied at 250 g/ha) | percentage damage caused to the plant, PRE Application SETFA (Setaria faberi (SETFA) [4]; applied at 250 g/ha) | percentage damage caused to the plant, PRE Application IPOHE ([5]; applied at 250 g/ha) | percentage damage caused to the plant, POST Application IPOHE ([6]; applied at 250 g/ha) | percentage damage caused to the plant, PRE Application ECHCG ([7]; applied at 250 g/ha) | percentage damage caused to the plant, POST Application ECHCG ([8]; applied at 250 g/ha) |
| --- | --- | --- | --- | --- | --- | --- | --- | --- | --- | --- | --- | --- | --- | --- | --- | --- | --- | --- |
| CCn1nnnc1NC(=O)c1nn2cnn(-c3cccc(C)c3)c2nc1=O [Compound 1.046] | 5 (5=80-100%) | 5 (5=80-100%) | 5 (5=80-100%) | 5 (5=80-100%) | 5 (5=80-100%) | 5 (5=80-100%) | 5 (5=80-100%) | 5 (5=80-100%) | – | – | – | – | – | – | – | – | – | – |
| O=C1CCCC(=O)C1C(=O)c1nn2cnn(-c3ccccc3)c2nc1=O [Compound 4.001] | – | – | – | – | – | – | – | – | 5 (5=80-100%) | 2 (2=20-39%) | 1 (1=0-19%) | 5 (5=80-100%) | 5 (5=80-100%) | 1 (1=0-19%) | 1 (1=0-19%) | 5 (5=80-100%) | 5 (5=80-100%) | 5 (5=80-100%) |
| O=C1CCCC(=O)C1C(=O)c1nn2cnn(-c3ccc(C(F)(F)F)cc3)c2nc1=O [Compound 4.008] | 4 (4=60-79%) | 5 (5=80-100%) | 5 (5=80-100%) | 5 (5=80-100%) | 5 (5=80-100%) | 5 (5=80-100%) | 5 (5=80-100%) | 5 (5=80-100%) | – | – | – | – | – | – | – | – | – | – |
| O=C1CCCC(=O)C1C(=O)c1nn2cnn(-c3cccc(Cl)c3)c2nc1=O [Compound 4.009] | 5 (5=80-100%) | 5 (5=80-100%) | 5 (5=80-100%) | 5 (5=80-100%) | 5 (5=80-100%) | 5 (5=80-100%) | 5 (5=80-100%) | 5 (5=80-100%) | – | – | – | – | – | – | – | – | – | – |
| O=C(c1nn2cnn(-c3ccc(C(F)(F)F)cc3)c2nc1=O)C1C(=O)C2CCC(C2)C1=O (centres unmarked) [Compound 5.008] | 5 (5=80-100%) | 5 (5=80-100%) | 5 (5=80-100%) | 5 (5=80-100%) | 5 (5=80-100%) | 5 (5=80-100%) | 5 (5=80-100%) | 5 (5=80-100%) | – | – | – | – | – | – | – | – | – | – |
| Cc1cccc(-n2ncn3nc(C(=O)C4C(=O)CC(C)CC4=O)c(=O)nc23)c1 (centres unmarked) [Compound 6.001] | 5 (5=80-100%) | 5 (5=80-100%) | 5 (5=80-100%) | 4 (4=60-79%) | 5 (5=80-100%) | 5 (5=80-100%) | 5 (5=80-100%) | 5 (5=80-100%) | – | – | – | – | – | – | – | – | – | – |
